Laboratory results taken from the supplement of paper PMC10307832.

Experiments:
Assay in all cases: relative viability (nuclei count vs DMSO), 5 days (fraction); higher = more cells survive
[1] = test system: LCLC-97TM1
How it was run: (§1)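 Five library-drug doses in √10 steps were combined with a fixed anchor-drug dose, or a single drug was given alone, by pin tool to lung cancer cell lines in 1536-well plates the day after seeding. Nuclei were stained and counted after 5 days. Relative viability is the nuclei count in treated wells over that in vehicle wells, taken as the median of duplicate plates.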

[2] = test system: NCI-H1355
How it was run: as §1

[3] = test system: NCI-H1648
How it was run: as §1

[4] = test system: NCI-H1703
How it was run: as §1

[5] = test system: NCI-H1993
How it was run: as §1

[6] = test system: NCI-H23
How it was run: as §1

[7] = test system: NCI-H322M
How it was run: as §1

[8] = test system: NCI-H596
How it was run: as §1

For CC(=O)O[C@@]12CO[C@@H]1C[C@H](O)[C@@]1(C)C(=O)[C@H](O)C3=C(C)[C@@H](OC(=O)[C@H](O)[C@@H](NC(=O)OC(C)(C)C)c4ccccc4)C[C@@](O)([C@@H](OC(=O)c4ccccc4)[C@H]21)C3(C)C [Docetaxel] + NC(=O)Nc1cc(-c2cccc(F)c2)sc1C(=O)N[C@H]1CCCNC1 [AZD7762] (partner 0.2 µM), the relative viability ([1]; first compound 0.0002 µM) was 0.194, the relative viability ([1]; first compound 0.000632 µM) was 0.221 and the relative viability ([1]; first compound 0.002 µM) was 0.078. For the same compound, the relative viability ([1]; first compound 0.006325 µM) was 0.0825, the relative viability ([1]; first compound 0.02 µM) was 0.0475 and the relative viability ([2]; first compound 0.0002 µM) was 0.698. The relative viability ([2]; first compound 0.000632 µM) was 0.758, the relative viability ([2]; first compound 0.002 µM) was 0.411 and the relative viability ([2]; first compound 0.02 µM) was 0.191. For the same compound, the relative viability ([3]; first compound 0.0002 µM) was 0.589, the relative viability ([3]; first compound 0.000632 µM) was 0.701 and the relative viability ([3]; first compound 0.002 µM) was 0.431. The relative viability ([3]; first compound 0.006325 µM) was 0.248, the relative viability ([3]; first compound 0.02 µM) was 0.217 and the relative viability ([4]; first compound 0.000632 µM) was 0.121. It also gave a relative viability ([4]; first compound 0.002 µM) of 0.107, a relative viability ([4]; first compound 0.006325 µM) of 0.114 and a relative viability ([4]; first compound 0.02 µM) of 0.0729. For the same compound, the relative viability ([5]; first compound 0.0002 µM) was 0.873, the relative viability ([5]; first compound 0.000632 µM) was 0.739 and the relative viability ([5]; first compound 0.002 µM) was 0.603. It also gave a relative viability ([5]; first compound 0.006325 µM) of 0.477, a relative viability ([5]; first compound 0.02 µM) of 0.303 and a relative viability ([6]; first compound 0.0002 µM) of 0.241. The relative viability ([6]; first compound 0.000632 µM) was 0.246, the relative viability ([6]; first compound 0.002 µM) was 0.136 and the relative viability ([6]; first compound 0.006325 µM) was 0.148. The relative viability ([6]; first compound 0.02 µM) was 0.103, the relative viability ([7]; first compound 0.0002 µM) was 0.611 and the relative viability ([7]; first compound 0.000632 µM) was 0.459. The relative viability ([7]; first compound 0.002 µM) was 0.451, the relative viability ([7]; first compound 0.006325 µM) was 0.509 and the relative viability ([7]; first compound 0.02 µM) was 0.39. The relative viability ([8]; first compound 0.0002 µM) was 1.07, the relative viability ([8]; first compound 0.000632 µM) was 0.934 and the relative viability ([8]; first compound 0.002 µM) was 1. For the same compound, the relative viability ([8]; first compound 0.006325 µM) was 0.581 and the relative viability ([8]; first compound 0.02 µM) was 0.397.

In the case of Nc1ccn([C@@H]2O[C@H](CO)[C@@H](O)[C@@H]2O)c(=O)n1 [Cytarabine] + NC(=O)Nc1cc(-c2cccc(F)c2)sc1C(=O)N[C@H]1CCCNC1 [AZD7762] (partner 0.2 µM), the relative viability ([1]; first compound 0.005 µM) is reported as 0.14, the relative viability ([1]; first compound 0.01581 µM) is reported as 0.0846 and the relative viability ([1]; first compound 0.05 µM) is reported as 0.0944. It also gave a relative viability ([1]; first compound 0.1581 µM) of 0.0643, a relative viability ([1]; first compound 0.5 µM) of 0.0575 and a relative viability ([2]; first compound 0.005 µM) of 0.455. For the same compound, the relative viability ([2]; first compound 0.01581 µM) was 0.455, the relative viability ([2]; first compound 0.05 µM) was 0.356 and the relative viability ([2]; first compound 0.1581 µM) was 0.181. The relative viability ([2]; first compound 0.5 µM) was 0.188, the relative viability ([3]; first compound 0.005 µM) was 0.647 and the relative viability ([3]; first compound 0.01581 µM) was 0.882. The relative viability ([3]; first compound 0.05 µM) was 0.73, the relative viability ([3]; first compound 0.1581 µM) was 0.527 and the relative viability ([3]; first compound 0.5 µM) was 0.401. The relative viability ([4]; first compound 0.005 µM) was 0.108, the relative viability ([4]; first compound 0.01581 µM) was 0.121 and the relative viability ([4]; first compound 0.05 µM) was 0.103. The relative viability ([4]; first compound 0.1581 µM) was 0.124, the relative viability ([4]; first compound 0.5 µM) was 0.13 and the relative viability ([5]; first compound 0.005 µM) was 0.766. For the same compound, the relative viability ([5]; first compound 0.01581 µM) was 0.562, the relative viability ([5]; first compound 0.05 µM) was 0.654 and the relative viability ([5]; first compound 0.1581 µM) was 0.523. For the same compound, the relative viability ([5]; first compound 0.5 µM) was 0.523, the relative viability ([6]; first compound 0.005 µM) was 0.227 and the relative viability ([6]; first compound 0.01581 µM) was 0.171. For the same compound, the relative viability ([6]; first compound 0.05 µM) was 0.202, the relative viability ([6]; first compound 0.1581 µM) was 0.126 and the relative viability ([6]; first compound 0.5 µM) was 0.134. It also gave a relative viability ([7]; first compound 0.005 µM) of 0.405, a relative viability ([7]; first compound 0.01581 µM) of 0.494 and a relative viability ([7]; first compound 0.05 µM) of 0.405. It also gave a relative viability ([7]; first compound 0.1581 µM) of 0.371, a relative viability ([7]; first compound 0.5 µM) of 0.385 and a relative viability ([8]; first compound 0.005 µM) of 1. The relative viability ([8]; first compound 0.01581 µM) was 1.01, the relative viability ([8]; first compound 0.05 µM) was 0.787 and the relative viability ([8]; first compound 0.1581 µM) was 0.419. The relative viability ([8]; first compound 0.5 µM) was 0.343.

Cc1sc2c(c1C)C(c1ccc(Cl)cc1)=N[C@@H](CC(=O)OC(C)(C)C)c1nnc(C)n1-2 [JQ1] + NC(=O)Nc1cc(-c2cccc(F)c2)sc1C(=O)N[C@H]1CCCNC1 [AZD7762] (partner 0.2 µM) gave a relative viability ([1]; first compound 0.04 µM) of 0.269, a relative viability ([1]; first compound 0.1265 µM) of 0.255 and a relative viability ([1]; first compound 0.4 µM) of 0.268. The relative viability ([1]; first compound 1.265 µM) was 0.097, the relative viability ([1]; first compound 4 µM) was 0.0653 and the relative viability ([2]; first compound 0.04 µM) was 0.747. The relative viability ([2]; first compound 0.1265 µM) was 0.769, the relative viability ([2]; first compound 0.4 µM) was 0.705 and the relative viability ([2]; first compound 1.265 µM) was 0.554. It also gave a relative viability ([2]; first compound 4 µM) of 0.406, a relative viability ([3]; first compound 0.04 µM) of 0.862 and a relative viability ([3]; first compound 0.1265 µM) of 0.906. The relative viability ([3]; first compound 0.4 µM) was 0.579, the relative viability ([3]; first compound 1.265 µM) was 0.376 and the relative viability ([3]; first compound 4 µM) was 0.388. The relative viability ([4]; first compound 0.04 µM) was 0.111, the relative viability ([4]; first compound 0.1265 µM) was 0.13 and the relative viability ([4]; first compound 0.4 µM) was 0.155. It also gave a relative viability ([4]; first compound 1.265 µM) of 0.108, a relative viability ([4]; first compound 4 µM) of 0.118 and a relative viability ([5]; first compound 0.04 µM) of 0.849. For the same compound, the relative viability ([5]; first compound 0.1265 µM) was 0.779, the relative viability ([5]; first compound 0.4 µM) was 0.796 and the relative viability ([5]; first compound 1.265 µM) was 0.53. The relative viability ([5]; first compound 4 µM) was 0.488, the relative viability ([6]; first compound 0.04 µM) was 0.208 and the relative viability ([6]; first compound 0.1265 µM) was 0.21. It also gave a relative viability ([6]; first compound 0.4 µM) of 0.215, a relative viability ([6]; first compound 1.265 µM) of 0.127 and a relative viability ([6]; first compound 4 µM) of 0.105. It also gave a relative viability ([7]; first compound 0.04 µM) of 0.532, a relative viability ([7]; first compound 0.1265 µM) of 0.534 and a relative viability ([7]; first compound 0.4 µM) of 0.44. It also gave a relative viability ([7]; first compound 1.265 µM) of 0.397, a relative viability ([7]; first compound 4 µM) of 0.437 and a relative viability ([8]; first compound 0.04 µM) of 1.02. The relative viability ([8]; first compound 0.1265 µM) was 0.898, the relative viability ([8]; first compound 0.4 µM) was 0.704 and the relative viability ([8]; first compound 1.265 µM) was 0.632. For the same compound, the relative viability ([8]; first compound 4 µM) was 0.373.
